Values of other authors, collected in patent EP2007386B1, “CAMPTOTHECIN-ANALOG WITH A NOVEL, FLIPPED LACTONE-STABLE, E-RING AND METHODS FOR MAKING AND USING SAME” (BIONUMERIK PHARMACEUTICALS, INC., priority 2006, dated 2007).
“Also recorded” adds a separate entry of the source. Where two headings read alike, the source gives them in different places.

Assays:
[1] = for Non-Hematologic Toxicity No. of Patients With: Cystitis / Non-Hematologic Toxicity No. of Patients With: Diarrhea: 5-day Course; for Number of Patients with Non-Hematologic Toxicity: Cystitis / Number of Patients with Non-Hematologic Toxicity: Diarrhea: Single-Dose Method
[2] = test system: advanced malignant melanoma; conditions: fifteen patients, 90-360 mg/m^2 repeated every 2 weeks
[3] = not given; remark: listed apart in the source
angiogenesis = conditions: mice cornea model; dose levels of 210 mg/kg
[4] = clinical studies in Japan alone
[5] = et al
[6] = 15 mg/m^2x5, 9 patients treated
[7] = 17 mg/m^2x5, 5 patients treated
[8] = 20 mg/m^2x5, 10 patients treated
[9] = 5-Day Course (27 Patients Total), 4 wks
[10] = 5-Day Course (27 Patients Total), 8 wks
[11] = 5-Day Course (27 Patients Total), 12 wks
[12] = Single-Dose Method (34 Patients Total), 3 wks
[13] = Single-Dose Method (34 Patients Total), 6 wks
[14] = Single-Dose Method (34 Patients Total), 9 wks
[15] = Single-Dose Method (34 Patients Total), 12 wks
[16] = Rothenberg, 90mg QWx 4 Q42 days, 32 pts, 180mg/m^2/wk (50-180)

Q: For `CC[C@@]1(O)C(=O)OCc2c1cc1n(c2=O)Cc2cc3ccccc3nc2-1` [CPT sodium], which “Cystitis, 5-Day Course (% of 27 Patients)” value ([1]; 5-Day Course, 27 patients, P<0.05) is on record?
A: 48 (P<0.05) %

Q: And the “Non-Hematologic Toxicity No. of Patients With: Cystitis” value ([1]; 11 mg/m^2x5, 2 patients treated)?
A: 1

Q: What about the “Non-Hematologic Toxicity No. of Patients With: Cystitis” value [1, 6] of the same compound?
A: 4

Q: And the “Non-Hematologic Toxicity No. of Patients With: Diarrhea” value [1, 6]?
A: 1

Q: And the “Non-Hematologic Toxicity No. of Patients With: Cystitis” value [1, 7]?
A: 2

Q: And the “Non-Hematologic Toxicity No. of Patients With: Diarrhea” value [1, 7]?
A: 4

Q: And the “Non-Hematologic Toxicity No. of Patients With: Cystitis” value [1, 8]?
A: 6

Q: What about the “Non-Hematologic Toxicity No. of Patients With: Diarrhea” value [1, 8] of the same compound?
A: 4

Q: What about the “Non-Hematologic Toxicity No. of Patients With: Diarrhea” value ([1]; 22 mg/m^2x5, 1 patient treated) of the same compound?
A: 1

Q: And the “Cystitis, Single Dose (% of 34 Patients)” value ([1]; Single Dose, 34 patients)?
A: 24%

Q: And the “Number of Patients with Non-Hematologic Toxicity: Cystitis” value ([1]; 100 mg/m^2, 6 patients treated)?
A: 2

Q: What about the “Number of Patients with Non-Hematologic Toxicity: Cystitis” value ([1]; 110 mg/m^2, 2 patients treated) of the same compound?
A: 1

Q: What about the “Number of Patients with Non-Hematologic Toxicity: Diarrhea” value ([1]; 110 mg/m^2, 2 patients treated) of the same compound?
A: 1

Q: What about the “Number of Patients with Non-Hematologic Toxicity: Cystitis” value ([1]; 120 mg/m^2, 7 patients treated) of the same compound?
A: 2

Q: What about the “Number of Patients with Non-Hematologic Toxicity: Diarrhea” value ([1]; 120 mg/m^2, 7 patients treated) of the same compound?
A: 4

Q: What about the “Number of Patients with Non-Hematologic Toxicity: Cystitis” value ([1]; 180 mg/m^2, 9 patients treated) of the same compound?
A: 3

Q: And the “Number of Patients with Non-Hematologic Toxicity: Diarrhea” value ([1]; 180 mg/m^2, 9 patients treated)?
A: 2

Q: And the “patients with less pronounced transient tumor regression” value [2]?
A: three

Q: And the patients with myelosuppression [2]?
A: 11

Q: And the “patients with a 50% or greater decrease in tumor diameter” value ([2]; rapid IV injection)?
A: None

Q: And the “Objective Results: Stable (patients)” value (gastrointestinal cancer; [9])?
A: 12

Q: And the “Objective Results: Worse (patients)” value (gastrointestinal cancer; [9])?
A: 14

Q: And the “Objective Results: Improved (patients)” value (gastrointestinal cancer; 5-Day Course (27 Patients Total), 4 wks after start of therapy)?
A: 1

Q: And the “Objective Results: Stable (patients)” value (gastrointestinal cancer; [10])?
A: 7

Q: What about the “Objective Results: Worse (patients)” value (gastrointestinal cancer; [10]) of the same compound?
A: 20

Q: And the “Objective Results: Stable (patients)” value (gastrointestinal cancer; [11])?
A: 6

Q: What about the “Objective Results: Worse (patients)” value (gastrointestinal cancer; [11]) of the same compound?
A: 21

Q: What about the “Objective Results: Stable (patients)” value (gastrointestinal cancer; [12]) of the same compound?
A: 17

Q: And the “Objective Results: Worse (patients)” value (gastrointestinal cancer; [12])?
A: 13

Q: And the “Objective Results: Improved (patients)” value (gastrointestinal cancer; Single-Dose Method (34 Patients Total), 3 wks after start of therapy)?
A: 4

Q: What about the “Objective Results: Improved (patients)” value (gastrointestinal cancer; [13]) of the same compound?
A: 2

Q: And the “Objective Results: Stable (patients)” value (gastrointestinal cancer; [13])?
A: 11

Q: And the “Objective Results: Worse (patients)” value (gastrointestinal cancer; [13])?
A: 21

Q: What about the “Objective Results: Improved (patients)” value (gastrointestinal cancer; [14]) of the same compound?
A: 2

Q: What about the “Objective Results: Stable (patients)” value (gastrointestinal cancer; [14]) of the same compound?
A: 8

Q: What about the “Objective Results: Worse (patients)” value (gastrointestinal cancer; [14]) of the same compound?
A: 24

Q: What about the “Objective Results: Stable (patients)” value (gastrointestinal cancer; [15]) of the same compound?
A: 6

Q: And the “Objective Results: Worse (patients)” value (gastrointestinal cancer; [15])?
A: 28

Q: And the “patients with evidence of partial objective improvement” value (gastrointestinal cancer; after 2 months (8 or 9 weeks), of 61 patients)?
A: two

Q: What about the “patients who showed improvement” value (gastrointestinal cancer; at 3 months, of 61 patients) of the same compound?
A: none

Q: What about the “patients with dose limiting bladder toxicity” value (doses of 20 to 30 mg/m^2, fifteen patients, intravenous push) of the same compound?
A: three

Q: What about the “additional patients with bladder toxicity” value (doses of 30 and 44 mg/m^2) of the same compound?
A: two

Q: What about the clinical benefit (eight patients with measurable disease, 5-day courses at dose levels associated with toxicity) of the same compound?
A: No clinical benefit

Q: For `CC[C@@]1(O)C(=O)OCc2c1cc1n(c2=O)Cc2cc3ccccc3nc2-1` [CPT, (S)-4-Ethyl-4-hydroxy-1 H-pyrano[3',4':6,7]indolizino[1,2-b]quinoline-3,14(4H,12H)-dione], which “mean urine recovery of CPT” value ([3]; excluding the five patients with impaired excretion) is on record?
A: 22.8%

Q: What about the “mean urine recovery of CPT” value ([3]; over the first 48 hours, IV camptothecin sodium 0.5 to 10.0 mg/kg) of the same compound?
A: 17.4%

Q: What does the source list for `CCc1c2c(nc3ccc(OC(=O)N4CCC(N5CCCCC5)CC4)cc13)-c1cc3c(c(=O)n1C2)COC(=O)[C@]3(O)CC` [CPT-11, 7-ethyl-10-[4-(1-piperidino)-1-piperidino]carbonyloxycamptothecin]?
A: effect on neovascularization (angiogenesis): significant reduction of neovascularization; patient deaths directly attributable to drug toxicity [4]: approximately 100; Tumor Type (responses) ([5]; Clavel, 90 min. QDx 3 Q21 Days, 37 pts, 115mg/m^2/d (33-115)): Breast (1 PR); also recorded: Mesothelioma; Toxicity ([5]; Clavel, 90 min. QDx 3 Q21 Days, 37 pts, 115mg/m^2/d (33-115), * = Dose Limiting Toxicity): Neutropenia*; also recorded: diarrhea,; also recorded: vomiting,; Tumor Type (responses) ([5]; Culine, 90 min. Q21 days, 59 pts, 150mg/m^2/wk (50-150)): Esophagus; also recorded: (1 PR) cervix; also recorded: (1 PR) renal; also recorded: (1 PR) Ovarian; Toxicity ([5]; Culine, 90 min. Q21 days, 59 pts, 150mg/m^2/wk (50-150), * = Dose Limiting Toxicity): Fatigue; also recorded: Stomatitis; also recorded: Neutropenia*; also recorded: diarrhea*; also recorded: vomiting,; also recorded: Alopecia; Tumor Type (responses) ([5]; Negoro, 30 min Infusion Weekly, 17 pts, 100mg/m^2 (50-150)): NS CLC (2 PRs); Toxicity ([5]; Negoro, 30 min Infusion Weekly, 17 pts, 100mg/m^2 (50-150), * = Dose Limiting Toxicity): neutropenia* and diarrhea* and N/V and alopecia, and Liver; Tumor Type (responses) ([5]; Ohe, 120 hr CI Q3wks, 36 pts, 40mg/m^2/d (5-40)): None; Toxicity ([5]; Ohe, 120 hr CI Q3wks, 36 pts, 40mg/m^2/d (5-40), * = Dose Limiting Toxicity): diarrhea*; also recorded: thrombocytopenia; also recorded: Anemia; Toxicity [5, 16]: neutropenia,; also recorded: vomiting,; also recorded: Alopecia; Tumor Type (responses) [5, 16]: Colon Ca; Tumor Type (responses) ([5]; Rowinsky, 90 min Infusion Q21 day, 32 pts, 240mg/m^2 (100-345)): Colon Cancer (1 PR); also recorded: Cervix Ca; Toxicity ([5]; Rowinsky, 90 min Infusion Q21 day, 32 pts, 240mg/m^2 (100-345), * = Dose Limiting Toxicity): Neutropenia*; also recorded: vomiting,; also recorded: diarrhea; also recorded: pain, flushing
